DC50 data for 24 compounds are collected here from patent US12570671B2 (BRISTOL-MYERS SQUIBB COMPANY, priority 2020, dated 2026).

The target in assay [1] is Ikaros (Homo sapiens, UniProt Q13422+Q96SW2). The assay is described as follows: Helios Cellular Degradation Assay (Ikaros readout). Format: cell-based. Also noted: endogenous in cells; host or cells: Jurkat. As to conditions: Jurkat cells, 72 h incubation, Ikaros-Alexa488 antibody staining, flow cytometry; read-out: Ikaros Jurkat IC50. As to the method:
(§1) Jurkat cells were plated at 80,000 cells/well in 40 μL RPMI+10% FBS in a 384 well cell culture plate prior to using acoustic dispensing technology for adding compound of interest. Cell cultures were incubated for 72 h at 37° C. and 5% C02. In order to facilitate analysis, cell cultures were spun down at 200 rpm for 5 min and the supernatant was discarded. After shaking the plate to dislodge the cell pellet, cells were resuspended in 50 μL of Fixation Buffer (eBioScience FoxP3 buffer set 00-5523-00) for 60 min at room temperature. After centrifuging and discarding the supernatant, cells were permeabilized with 50 μL of Permeabilization buffer (eBioScience FoxP3 buffer set 00-5523-00) for 10 min at room temperature. Following permeabilization, cells were spun down and the supernatant was replaced with 20 μL fluorescently labelled antibodies against Helios, Ikaros and Aiolos or corresponding Isotype controls in 1× Permeabilization buffer (Ikaros-Alexa488 [Biolegend, Cat #368408, 1:50], Helios-PE [CST, Cat #29360, 1:50], Aiolos-Alexa647 [Biolegend, Cat #371106Biolegend, 1:25]) and staining reactions were incubated for 1 h at room temperature; protected from light. Subsequently, 30 μL of 1× Permeabilization buffer was added prior to centrifuging the cells and discarding the supernatant. Stained cells were resuspended in 25 μL of flow cytometry staining buffer (PBS+0.2% BSA) and analyzed using an Intellicyt Ique Plus flow cytometer.
For orientation: Flow cytometry measures light scatter and fluorescence of single cells or particles in a stream.

For assay [2], the target named is Helios (Homo sapiens, UniProt Q96SW2+Q9UKS7). Briefly: Helios Cellular Degradation Assay (Helios readout). On the set-up: endogenous in cells; host or cells: Jurkat. Format: cell-based. Particulars: Jurkat cells, 72 h incubation, Helios-PE antibody staining, flow cytometry; read-out: Helios Jurkat IC50. The protocol: as §1
Sequence of Helios (Q9UKS7 whole entry): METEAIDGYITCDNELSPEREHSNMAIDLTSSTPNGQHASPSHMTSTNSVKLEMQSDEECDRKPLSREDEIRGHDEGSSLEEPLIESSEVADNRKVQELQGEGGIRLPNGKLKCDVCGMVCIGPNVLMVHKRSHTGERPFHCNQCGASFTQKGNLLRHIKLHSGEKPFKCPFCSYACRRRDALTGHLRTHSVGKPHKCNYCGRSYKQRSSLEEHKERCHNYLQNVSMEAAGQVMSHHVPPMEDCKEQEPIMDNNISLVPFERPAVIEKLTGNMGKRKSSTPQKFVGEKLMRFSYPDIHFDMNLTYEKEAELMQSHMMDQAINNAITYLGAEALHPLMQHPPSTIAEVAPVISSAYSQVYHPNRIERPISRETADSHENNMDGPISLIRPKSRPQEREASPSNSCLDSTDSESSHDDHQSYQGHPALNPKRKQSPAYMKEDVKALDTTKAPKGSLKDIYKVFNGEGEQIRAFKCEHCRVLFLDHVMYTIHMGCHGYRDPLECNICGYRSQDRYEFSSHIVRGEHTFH
Sequence of Helios (Q96SW2 whole entry): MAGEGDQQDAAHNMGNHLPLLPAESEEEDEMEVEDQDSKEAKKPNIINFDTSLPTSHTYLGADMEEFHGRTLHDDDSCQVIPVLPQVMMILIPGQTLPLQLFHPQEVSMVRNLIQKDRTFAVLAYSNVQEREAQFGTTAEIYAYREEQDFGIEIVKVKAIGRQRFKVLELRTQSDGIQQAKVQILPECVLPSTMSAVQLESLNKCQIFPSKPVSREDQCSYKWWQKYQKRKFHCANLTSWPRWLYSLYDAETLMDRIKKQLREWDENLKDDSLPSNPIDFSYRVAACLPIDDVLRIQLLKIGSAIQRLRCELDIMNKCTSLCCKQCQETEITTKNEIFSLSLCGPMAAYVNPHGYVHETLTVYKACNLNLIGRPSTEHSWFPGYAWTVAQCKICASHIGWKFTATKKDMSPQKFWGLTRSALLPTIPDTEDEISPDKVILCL
Sequence of Helios (Q16531 whole entry partner): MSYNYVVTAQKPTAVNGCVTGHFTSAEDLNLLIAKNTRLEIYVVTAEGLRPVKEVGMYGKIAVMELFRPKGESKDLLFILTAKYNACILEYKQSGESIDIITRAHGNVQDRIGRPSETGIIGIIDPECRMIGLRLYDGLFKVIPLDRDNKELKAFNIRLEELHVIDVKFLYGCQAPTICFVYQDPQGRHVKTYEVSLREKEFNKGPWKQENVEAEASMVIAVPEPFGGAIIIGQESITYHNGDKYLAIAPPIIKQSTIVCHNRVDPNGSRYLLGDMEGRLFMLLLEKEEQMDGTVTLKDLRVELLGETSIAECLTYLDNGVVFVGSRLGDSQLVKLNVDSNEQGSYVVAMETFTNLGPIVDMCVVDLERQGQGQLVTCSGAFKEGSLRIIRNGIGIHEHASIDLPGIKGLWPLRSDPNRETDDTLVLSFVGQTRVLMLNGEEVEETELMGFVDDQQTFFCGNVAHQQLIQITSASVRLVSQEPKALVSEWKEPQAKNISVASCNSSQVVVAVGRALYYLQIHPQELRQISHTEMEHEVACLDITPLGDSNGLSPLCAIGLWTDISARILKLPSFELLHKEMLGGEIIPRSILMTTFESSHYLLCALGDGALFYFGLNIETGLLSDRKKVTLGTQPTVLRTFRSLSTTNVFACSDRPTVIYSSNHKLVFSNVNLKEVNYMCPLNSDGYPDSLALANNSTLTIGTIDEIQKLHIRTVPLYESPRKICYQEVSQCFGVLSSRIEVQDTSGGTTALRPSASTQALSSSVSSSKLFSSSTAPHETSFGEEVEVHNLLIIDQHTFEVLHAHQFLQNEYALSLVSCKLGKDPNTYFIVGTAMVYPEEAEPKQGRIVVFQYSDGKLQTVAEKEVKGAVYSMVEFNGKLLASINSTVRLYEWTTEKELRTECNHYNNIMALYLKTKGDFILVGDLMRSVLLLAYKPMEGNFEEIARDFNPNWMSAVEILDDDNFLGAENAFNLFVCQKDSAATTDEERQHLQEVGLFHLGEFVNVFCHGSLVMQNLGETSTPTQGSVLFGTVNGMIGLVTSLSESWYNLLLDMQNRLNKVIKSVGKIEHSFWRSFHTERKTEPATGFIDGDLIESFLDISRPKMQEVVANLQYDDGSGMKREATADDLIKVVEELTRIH

Some results are limits rather than exact numbers.

Sequence of Ikaros (Q13422 whole entry): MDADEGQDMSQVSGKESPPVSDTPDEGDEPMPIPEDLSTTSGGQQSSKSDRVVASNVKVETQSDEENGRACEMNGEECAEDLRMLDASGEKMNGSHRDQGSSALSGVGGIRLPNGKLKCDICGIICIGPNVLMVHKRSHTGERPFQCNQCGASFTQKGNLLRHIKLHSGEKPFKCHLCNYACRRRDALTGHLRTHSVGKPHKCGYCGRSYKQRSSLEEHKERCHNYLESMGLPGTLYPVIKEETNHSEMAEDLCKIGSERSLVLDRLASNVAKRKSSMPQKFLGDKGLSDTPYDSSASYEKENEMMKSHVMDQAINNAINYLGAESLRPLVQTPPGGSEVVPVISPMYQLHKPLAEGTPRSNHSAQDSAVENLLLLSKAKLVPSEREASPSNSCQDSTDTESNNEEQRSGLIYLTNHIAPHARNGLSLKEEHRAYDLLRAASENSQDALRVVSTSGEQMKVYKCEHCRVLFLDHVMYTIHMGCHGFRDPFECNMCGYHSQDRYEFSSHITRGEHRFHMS
Sequence of Ikaros (Q96SW2 whole entry): as the sequence (Q96SW2 whole entry) above
Sequence of Ikaros (Q16531 whole entry partner): as the sequence (Q16531 whole entry partner) above

As for `COC(=O)c1ccc2cnc(-c3ccc4c(c3)CN(C3CCC(=O)NC3=O)C4=O)nc2c1` (stereo not drawn) [Example 41, methyl 2-[2-(2,6-dioxopiperidin-3-yl)-1-oxo-2,3-dihydro-1H-isoindol-5-yl]quinazoline-7-carboxylate], the values for the DC50 in assay [1] and in assay [2] were > 20 µM and > 20000 nM, respectively.
The corresponding values for `O=C1CCC(N2Cc3cc(-c4ncc(OCc5ccccc5)c5ccccc45)ccc3C2=O)C(=O)N1` (stereo not drawn) [Example 105, 3-(5-(4-(benzyloxy)isoquinolin-1-yl)-1-oxoisoindolin-2-yl)piperidine-2,6-dione] are ≥ 20 µM and 140 nM.
The corresponding values for `O=C1CCC(N2Cc3cc(-c4cnc5cc(F)ccc5n4)ccc3C2=O)C(=O)N1` (stereo not drawn) [Example 26, 3-[5-(6-fluoroquinoxalin-2-yl)-1-oxo-2,3-dihydro-1H-isoindol-2-yl]piperidine-2,6-dione] are > 20 µM and 98 nM.
The like results for `Nc1nc(-c2ccc3c(c2)CN([C@@H]2CCC(=O)NC2=O)C3=O)cc2ccccc12` [Example 83, (3R)-3-[5-(1-aminoisoquinolin-3-yl)-1-oxo-2,3-dihydro-1H-isoindol-2-yl]piperidine-2,6-dione] were, in that order, ≥ 20 µM and 30 nM.
In the case of `O=C1CCC(N2Cc3cc(-c4nccc(-c5ccccc5)n4)ccc3C2=O)C(=O)N1` (stereo not drawn) [Example 71, 3-(1-oxo-5-(4-phenylpyrimidin-2-yl)isoindolin-2-yl)piperidine-2,6-dione], the DC50 was > 20 µM in assay [1] and 75 nM in assay [2].
For the compound `O=C1CCC(N2Cc3cc(-c4ccc5[nH]cnc5n4)ccc3C2=O)C(=O)N1` (stereo not drawn) [Example 139, 3-(5-(1H-imidazo[4,5-b]pyridin-5-yl)-1-oxoisoindolin-2-yl)piperidine-2,6-dione], the DC50 in assay [1] is ≥ 20 µM; in assay [2], 4160 nM.
The like results for `O=C1CCC(N2Cc3cc(-c4nc5ccccc5nc4Cl)ccc3C2=O)C(=O)N1` (stereo not drawn) [Example 93, 3-(5-(3-chloroquinoxalin-2-yl)-1-oxoisoindolin-2-yl)piperidine-2,6-dione] were, in that order, ≥ 20 µM and 17100 nM.
The like results for `O=C1CCC(N2Cc3cc(-c4cc5ccccc5c(C5CC5)n4)ccc3C2=O)C(=O)N1` (stereo not drawn) [Example 89, 3-(5-(1-cyclopropylisoquinolin-3-yl)-1-oxoisoindolin-2-yl)piperidine-2,6-dione] were, in that order, ≥ 20 µM and 2200 nM.
The corresponding values for `O=C1CCC(N2Cc3cc(-c4nccc(-c5cccnc5)n4)ccc3C2=O)C(=O)N1` (stereo not drawn) [Example 72, 3-(1-oxo-5-(4-(pyridin-3-yl)pyrimidin-2-yl)isoindolin-2-yl)piperidine-2,6-dione] are > 20 µM and > 20000 nM.
For `O=C1CCC(N2Cc3cc(-c4cnc5ccccc5n4)ccc3C2=O)C(=O)N1` (stereo not drawn) [Example 7, 3-[1-oxo-5-(quinoxalin-2-yl)-2,3-dihydro-1H-isoindol-2-yl]piperidine-2,6-dione], the DC50 in assay [1] is > 20 µM; in assay [2], 73 nM.
The like results for `O=C1CCC(N2Cc3cc(-c4ccc5c(n4)NCCN5)ccc3C2=O)C(=O)N1` (stereo not drawn) [Example 118, 3-(1-oxo-5-(1,2,3,4-tetrahydropyrido[2,3-b]pyrazin-6-yl)isoindolin-2-yl)piperidine-2,6-dione] were, in that order, ≥ 10 µM and 180 nM.
The like results for `Nc1nc(-c2ccc3c(c2)CN(C2CCC(=O)NC2=O)C3=O)cc2ccccc12` (stereo not drawn) [Example 4, 3-[5-(1-aminoisoquinolin-3-yl)-1-oxo-2,3-dihydro-1H-isoindol-2-yl]piperidine-2,6-dione] were, in that order, > 20 µM and 6 nM.
Consider `N#Cc1ccnc(-c2ccc3c(c2)CN(C2CCC(=O)NC2=O)C3=O)c1` (stereo not drawn) [Example 110, 2-(2-(2,6-dioxopiperidin-3-yl)-1-oxoisoindolin-5-yl) isonicotinonitrile], for which the DC50 in assay [1] is ≥ 10 µM; in assay [2], 880 nM.
Turning to `Cc1c(-c2ccc3c(c2)CN(C2CCC(=O)NC2=O)C3=O)nc(N)c2ccccc12` (stereo not drawn) [Example 131, 3-[5-(1-amino-4-methylisoquinolin-3-yl)-1-oxo-2,3-dihydro-1H-isoindol-2-yl]piperidine-2,6-dione], the DC50 in assay [1] is ≥ 20 µM; in assay [2], 140 nM.
The corresponding values for `Nc1cc(-c2ccc3c(c2)CN(C2CCC(=O)NC2=O)C3=O)nc2ccccc12` (stereo not drawn) [Example 8, 3-[5-(4-aminoquinolin-2-yl)-1-oxo-2,3-dihydro-1H-isoindol-2-yl]piperidine-2,6-dione] are > 20 µM and 25 nM.
The corresponding values for `COc1cccc2ccc(-c3ccc4c(c3)CN(C3CCC(=O)NC3=O)C4=O)nc12` (stereo not drawn) [Example 33, 3-[5-(8-methoxyquinolin-2-yl)-1-oxo-2,3-dihydro-1H-isoindol-2-yl]piperidine-2,6-dione] are > 20 µM and 120 nM.
Consider `O=C1CCC(N2Cc3cc(-c4cc(CO)ccn4)ccc3C2=O)C(=O)N1` (stereo not drawn) [Example 108, 3-(5-(4-(hydroxymethyl)pyridin-2-yl)-1-oxoisoindolin-2-yl)piperidine-2,6-dione], for which the DC50 in assay [1] was ≥ 10 µM; in assay [2], 830 nM.
The corresponding values for `O=C1CCC(N2Cc3cc(-c4ncc5ccccc5n4)ccc3C2=O)C(=O)N1` (stereo not drawn) [Example 9, 3-[1-oxo-5-(quinazolin-2-yl)-2,3-dihydro-1H-isoindol-2-yl]piperidine-2,6-dione] are > 20 µM and 27 nM.
For `O=C1CCC(N2Cc3cc(-c4cc(C(=O)NC5CC5)c5ccccc5n4)ccc3C2=O)C(=O)N1` (stereo not drawn) [Example 14, N-cyclopropyl-2-[2-(2,6-dioxopiperidin-3-yl)-1-oxo-2,3-dihydro-1H-isoindol-5-yl]quinoline-4-carboxamide], the values for the DC50 in assay [1] and in assay [2] were > 20 µM and 400 nM, respectively.
The corresponding values for `O=C1CCC(N2Cc3cc(-c4nccc5ncccc45)ccc3C2=O)C(=O)N1` (stereo not drawn) [Example 100, 3-(5-(1,6-naphthyridin-5-yl)-1-oxoisoindolin-2-yl)piperidine-2,6-dione] are ≥ 20 µM and 210 nM.
The corresponding values for `COc1cnc(-c2ccc3c(c2)CN(C2CCC(=O)NC2=O)C3=O)c2ccccc12` (stereo not drawn) [Example 103, 3-(5-(4-methoxyisoquinolin-1-yl)-1-oxoisoindolin-2-yl)piperidine-2,6-dione] are ≥ 20 µM and 10 nM.
The like results for `Cc1cc(N)nc(-c2ccc3c(c2)CN(C2CCC(=O)NC2=O)C3=O)c1` (stereo not drawn) [Example 140, 3-(5-(6-amino-4-methylpyridin-2-yl)-1-oxoisoindolin-2-yl)piperidine-2,6-dione] were, in that order, ≥ 20 µM and 20 nM.
For `O=C1CCC(N2Cc3cc(-c4cc(-c5ccccc5)ccn4)ccc3C2=O)C(=O)N1` (stereo not drawn) [Example 74, 3-(1-oxo-5-(4-phenylpyridin-2-yl)isoindolin-2-yl)piperidine-2,6-dione], the DC50 in assay [1] is 0.034 µM; in assay [2] it was 32 nM.
The corresponding values for `Cc1cnc(-c2ccc3c(c2)CN(C2CCC(=O)NC2=O)C3=O)cc1C` (stereo not drawn) [Example 121, 3-(5-(4,5-dimethylpyridin-2-yl)-1-oxoisoindolin-2-yl)piperidine-2,6-dione] are 1.28 µM and 40 nM.
